Results: patent publication US20220160751A1, “METHODS OF TREATMENT OF DISEASES AND DISORDERS ASSOCIATED WITH INCREASED TET LEVEL, INCREASED H19 LEVEL, INCREASED LEVEL OF TGF SIGNALING, OR ANY COMBINATION THEREOF” (YALE UNIVERSITY, priority 2019, published 2022)

Experiments:
[1] = test system: LX-2 human hepatic stellate cells; assay: qPCR and immunoblotting of gene expression in LX-2 cells; format: cell-based
Method: LX-2 human hepatic stellate cells (Yale Liver Center) were maintained in DMEM (Gibco, 11965-092) supplemented with 10% heat-inactivated fetal bovine serum (Gibco, 26140-079) and 1% PS (penicillin and streptomycin) at 37° C. in 5% humidified CO2 tissue culture incubator. Generally, cells were plated and transfected in a 24-well plate scale. For transfection with siRNA, let-7, or iLet7, 10 pmol of siTET3 (or siCon), let-7 (or miCon), or iLet7 (iCon) were mixed with 25 μl of OPTI-MEM (Gibco, 31985-070) by gentle pipetting. In parallel, 1 μl of Lipofectamine 3000 (ThermoFisher Scientific, L3000015) was mixed with 25 μl of OPTI-MEM. Then, the contents from the two tubes were mixed by gentle pipetting. After incubation for 5 min at RT, the resulting 50 μl solution was used to resuspend cell pellet (5×10^4 cells). After incubation at RT for 10 min, 450 μl of growth medium was added and the cell suspension was transferred into one well of a 24-well plate. For transfection with TET3-expression plasmid pTET3 (pcDNA-Flag-Tet3, Addgene plasmid #60940, (30)) or control vector, 5×10^4 cells per well were seeded in a 24-well plate the night before transfection. The next day, 0.75 μg of pTET3 (or Vec) were mixed with 1 μl of P3000 in 25 μl of OPTI-MEM by gentle pipetting. In parallel, 0.5 μl of Lipofectamine 3000 were mixed with 25 μl of OPTI-MEM. The contents from the two tubes were combined by gentle pipetting and incubated for 5 min at RT. The resulting 50 μl of transfection solution was added to each well of cells seeded in a 24-well plate the night before and from which the growth medium had been removed. After 6 h of incubation in a tissue culture incubator, 500 μl of growth medium were added to each well of cells. For TGF-β1 (Sigma, USA) treatment experiments, transfected cells were incubated in 500 μl of serum-free DMEM containing 5 ng/mL TGF-β1 (diluted with HCl) or HCl (as control) for 24 h or 48 h as indicated.
Total RNA was extracted from cultured cells or liver tissue samples using PureLink RNA Mini Kit (Ambion, 12183018A). 0.8 μg of total RNA was reverse transcribed to cDNA in a reaction volume of 10 μl using PrimeScript RT Reagent Kit (TAKARA, RR037A). Quantitative real-time PCR reactions were carried out using iQSYBRGreen (Bio-Rad) in a Bio-Rad iCycler. Gene expression levels were normalized against housekeeping genes HPRT1 and RPLP0.
For liver tissue samples, 5-10 mg of tissues were homogenized by sonication (Qsonica, Model Q125) in 150 μl of 2×SDS-sample buffer. Samples were immediately heated at 100° C. for 3 min with occasional vertexing. Then, 100 μl of 2×SDS-sample buffer was added to each sample and the 250 μl of tissue lysate were further homogenized by sonication and heated again at 100° C. for 3-5 min with vertexing once every 15 sec. Samples (further diluted at 1:1 with 2×SDS-sample buffer before loading) were loaded 5-10 μl per well onto a 4-15% gradient SDS gel, followed by Western blot analysis. Image J was used to quantify the protein bands.

[2] = test system: MED12, TGFBR2 and TSP1 promoters; assay: ChIP-qPCR, methylation profiling and QMSP in leiomyoma cells; format: cell-based, human; settings: vs siCon
Method: gDNA was extracted from primary leiomyoma cells from one well of 24-well plates using Quick-gDNA MicroPrep (Zymo Research Corporation, Irvine, Calif.; D3021) according to the manufacturer's instructions. For bisulfite treatment, 200 ng of gDNA was used for each column using EZ DNA Methylation-Gold Kit (Zymo, D5006). 100 μl of elution buffer was used to elute gDNA from each column. Real-time quantitative PCR was performed in a 15 μl reaction containing 5 μl of the eluted gDNA using iQSYBRGreen (Bio-Rad, Hercules, Calif.; 1708880) in a Bio-Rad iCycler. Two sets of PCR primers were designed: one for unmethylated and one for methylated DNA sequences. The PCR primers for methylated DNA were used at a final concentration of 0.6 μM in each PCR reaction. PCR was performed by initial denaturation at 95° C. for 5 min, followed by 40 cycles of 30 sec at 95° C., 30 sec at 60° C., and 30 sec at 72° C. Specificity was verified by melting curve analysis and agarose gel electrophoresis. The threshold cycle (Ct) values of each sample were used in the post-PCR data analysis. The relative levels of methylated versus unmethylated DNA sequences are presented.
These experiments were performed as previously described (Zhou J et al., 2015, Nat Commun 6:10221) with minor modifications. Briefly, experiments were performed in a 10-cm plate scale using the Pierce Agarose ChIP Kit (Thermo Scientific, 26156) according to the manufacturer's instructions with minor modifications. Agarose beads were used to pre-bind overnight with antibodies against TET3 (Millipore Sigma, ABE290), H3K4me3 (Cell signaling, C42D8) and H3K27me3 (Cell signaling, C36B11). Preimmune IgG was used as a negative control. Cells were cross-linked with 1% formaldehyde at room temperature for 10 min, and the reaction was stopped by 1× glycine. ChIPs were carried out overnight at 4° C. Primers for the specific promoter regions of MED12, TGFBR2, and TSP1 (FIG. 16A) were used to amplify input and ChIP-purified DNA. The relative enrichments of the indicated DNA regions were calculated using the Percent Input Method according to the manufacturer's instructions and were normalized to % input. Data are presented after normalization against background IgG signals.

“siTET3: TET3-specific siRNA (human), Ambion 4392420/s47239 (sense CAGCAACUCCUAGAACUGATT; antisense UCAGUUCUAGGAGUUGCUGGA; chemistry not given here)” was tested, and the “expression of TGFB1, TSP1 and TGFBR2 (mRNA and protein)” value ([1]; 48 h post-transfection, vs siCon or Vec) was “decreased expression of TGFB1, TSP1 and TGFBR2”, the “TGF-β1-induced TGF-β signaling and profibrotic gene expression” value ([1]; TET3 siRNA 24 h, then TGF-β1 5 ng/mL 24 h) was “the effects were no longer observed” and the “binding of TET3 to MED12, TGFBR2 and TSP1 promoters (ChIP-qPCR)” value ([2]; UtLM cells, 48 h) was “significantly reduced”. For the same substance, the “H3K4me3 association with promoters” value ([2]; UtLM cells) was “significantly decreased H3K4me3”, the “H3K27me3 association with promoters” value ([2]; UtLM cells) was “increased H3K27me3” and the “decrease of the ratios of H3K4me3/H3K27me3” value ([2]; UtLM cells) was 5-8 fold. The “methylation of CpGs within the CTRRs of MED12, TGFBR2 and TSP1 promoters” value ([2]; ht-UtLM genome-wide profiling, confirmed in UtLM by QMSP, 48 h) was “increased methylation of the CpGs within the CTRRs”.
